Results published in US12466849B2, “Anti-viral and anti-tumoral compounds” (YEDA RESEARCH AND DEVELOPMENT CO. LTD, priority 2020, dated 2025).
≈ marks a conversion by molar mass, not a printed value. Read-outs that look alike come from different tables or passages of the source.

Columns and labels:
influenza A(H5N1) [1] = test system: influenza A(H5N1)
Yellow fever virus (YFV) [2] = settings: YFV; SI = CC50/EC50
in vitro [3] = settings: African green monkey
RSV [4] = experiment: microbe, parasite or virus in culture; settings: human respiratory syncytial virus, MA104
adenovirus-5 (Ad5) [5] = experiment: organism not typed; settings: A549
in vitro [6] = settings: dog
[7] = test system: Rift Valley fever virus (RVFV); experiment: microbe, parasite or virus in culture; settings: Vero 76
in vitro [8] = settings: African green monkey; remark: listed apart in the source
SARS-CoV-2 [9] = experiment: microbe, parasite or virus in culture; settings: Severe acute respiratory syndrome coronavirus 2, Vero 76
[10] = human
adenovirus-5 (Ad5) [11] = settings: Ad5; SI = CC50/EC50
enterovirus-68 (EV-68) [12] = experiment: organism not typed; settings: RD
dengue virus-2 (DV-2) [13] = settings: DV-2; SI = CC50/EC50
in vitro [14] = settings: African green monkey; remark: listed apart in the source
Yellow fever virus (YFV) [15] = experiment: microbe, parasite or virus in culture; settings: Huh-7
[16] = test system: Rift Valley fever virus (RVFV); settings: RVFV; SI = CC50/EC50
in vitro [17] = settings: African green monkey; remark: listed apart in the source
[18] = test system: Venezuelan equine encephalitis virus (VEEV); experiment: microbe, parasite or virus in culture; settings: Vero 76
SARS-CoV-2 [19] = settings: SARS-CoV-2; SI = CC50/EC50
[20] = MRC-5 cytotoxicity assay (MTS) and visual cytotoxicity; settings: human
HCMV AD169 = experiment: HCMV plaque reduction assay, MRC-5 cells, strain AD169; assay type: cell-based, Human cytomegalovirus; settings: Human betaherpesvirus 5, 144 h; hCMV AD169, MRC5 cells, plaque assay, 6-days duration
West Nile virus (WNV) [21] = settings: WNV; SI = CC50/EC50
Influenza B [22] = test system: Influenza B
TCRV [23] = experiment: microbe, parasite or virus in culture; settings: Mammarenavirus tacaribeense, Vero C1008
[24] = test system: Japanese encephalitis virus (JEV); experiment: microbe, parasite or virus in culture; settings: Vero 76
RSV [25] = settings: RSV; SI = CC50/EC50
Influenza B [26] = experiment: microbe, parasite or virus in culture; settings: MDCK
enterovirus-68 (EV-68) [27] = settings: EV-68; SI = CC50/EC50
poliovirus-1 (POV-1) [28] = settings: for SI: POV-1, SI = CC50/EC50
in vitro [29] = settings: African green monkey; remark: listed apart in the source
SARS-CoV [30] = experiment: microbe, parasite or virus in culture; settings: Severe acute respiratory syndrome coronavirus, Vero 76
in vitro [31] = settings: African green monkey; remark: listed apart in the source
TCRV [32] = settings: TCRV; SI = CC50/EC50
in vitro [33] = settings: African green monkey; remark: listed apart in the source
poliovirus-1 (POV-1) [34] = experiment: organism not typed
Powassan virus (POWV) [35] = experiment: microbe, parasite or virus in culture; settings: BHK-21
in vitro [36] = settings: dog; remark: listed apart in the source
influenza A(H1N1) [37] = test system: influenza A(H1N1)
in vitro [38] = settings: Syrian hamster
[39] = test system: Venezuelan equine encephalitis virus (VEEV); settings: VEEV; SI = CC50/EC50
[40] = test system: Japanese encephalitis virus (JEV); settings: JEV; SI = CC50/EC50
influenza A(H5N1) [41] = experiment: microbe, parasite or virus in culture; settings: H5N1, MDCK
Zika virus [42] = experiment: microbe, parasite or virus in culture; settings: Vero 76
in vitro [43] = settings: African green monkey; remark: listed apart in the source
in vitro [44] = settings: African green monkey; remark: listed apart in the source
West Nile virus (WNV) [45] = experiment: microbe, parasite or virus in culture; settings: Vero 76
Zika virus [46] = settings: Zika; SI = CC50/EC50
[47] = rat, 1 µM
influenza A(H1N1) [48] = experiment: microbe, parasite or virus in culture; settings: H1N1, MDCK
Powassan virus (POWV) [49] = settings: POWV; SI = CC50/EC50
in vitro [50] = settings: dog; remark: listed apart in the source
dengue virus-2 (DV-2) [51] = experiment: microbe, parasite or virus in culture; settings: Huh-7
SARS-CoV [52] = settings: SARS-CoV; SI = CC50/EC50
[53] = test system: enterovirus-68 (EV-68, US/DY/14-18953); experiment: organism not typed; settings: RD
[54] = test system: enterovirus-68 (EV-68, US/DY/14-18953); settings: EV-68; SI = CC50/EC50
in vitro [55] = settings: human

Nc1nc2c(ncn2[C@@H]2OC(CO)=CC2O)c(=O)[nH]1 (some centres unmarked) [AB21651]
antiviral activity against Influenza (H5N1) (in words) (influenza A(H5N1) [1]; Table 11): exhibits antiviral activity | SI (influenza A(H5N1) [1]; influenza A(H5N1), SI = CC50/EC50): >1.5 | SI (Yellow fever virus (YFV) [2]): 0 | CC50 (in vitro [3]): > 2 mM | EC50 (RSV [4]): > 2 mM | EC50 (adenovirus-5 (Ad5) [5]): > 2 mM | CC50 (in vitro [6]): > 2 mM | EC50 [7]: > 2 mM | CC50 (in vitro [8]): > 2 mM | EC50 (SARS-CoV-2 [9]): > 2 mM | Peak area ratio, metabolite formed (AB21649 from AB23039, AB21651 from AB23040) ([10]; 0 min, 1 µM): 6.17E−04 | Peak area ratio, metabolite formed (AB21649 from AB23039, AB21651 from AB23040) ([10]; 0 min, 1 μM): 7.04E−04 | Peak area ratio, metabolite formed (AB21649 from AB23039, AB21651 from AB23040) ([10]; 15 min, 1 μM): 1.03E−03 | Peak area ratio, metabolite formed (AB21649 from AB23039, AB21651 from AB23040) ([10]; 60 min, 1 μM): 1.50E−03 | SI (adenovirus-5 (Ad5) [11]): 0 | EC50 (enterovirus-68 (EV-68) [12]): > 1.1 mM | SI (dengue virus-2 (DV-2) [13]): 0 | CC50 (in vitro [14]): > 2 mM | EC50 (Yellow fever virus (YFV) [15]): > 2 mM | SI [16]: 0 | CC50 (in vitro [17]): > 2 mM | EC50 [18]: > 2 mM | SI (SARS-CoV-2 [19]): 0 | CC50 at 6 days [20]: > 0.1 mM | EC50 (HCMV AD169): > 0.1 mM | SI (West Nile virus (WNV) [21]): 0 | SI (Influenza B [22]): 0 | EC50 (TCRV [23]): > 2 mM | EC50 [24]: > 2 mM | SI (RSV [25]): 0 | EC50 (Influenza B [26]): > 2 mM | SI (enterovirus-68 (EV-68) [27]): 0 | SI (poliovirus-1 (POV-1) [28]): 0 | CC50 (in vitro [29]): > 2 mM | EC50 (SARS-CoV [30]): > 2 mM | CC50 (in vitro [31]): > 2 mM | SI (TCRV [32]): 0 | CC50 (in vitro [33]): > 2 mM | EC50 (poliovirus-1 (POV-1) [34]; Vero 76): > 2 mM | EC50 (Powassan virus (POWV) [35]): > 2 mM | CC50 (in vitro [36]): > 2 mM | antiviral activity against Influenza (H1N1) (in words) (influenza A(H1N1) [37]): exhibits antiviral activity | SI (influenza A(H1N1) [37]; H1N1): >4.5 | CC50 (in vitro [38]): > 2 mM | SI [39]: 0 | SI [40]: 0 | EC50 (influenza A(H5N1) [41]): 1.3 mM | EC50 (Zika virus [42]): > 2 mM | CC50 (in vitro [43]): > 2 mM | CC50 (in vitro [44]): > 2 mM | EC50 (West Nile virus (WNV) [45]): > 2 mM | SI (Zika virus [46]): 0 | Peak area ratio, metabolite formed (AB21649 from AB23039, AB21651 from AB23040) ([47]; 15 min): 6.93E−04 | Peak area ratio, metabolite formed (AB21649 from AB23039, AB21651 from AB23040) ([47]; 60 min): 7.68E−04 | EC50 (influenza A(H1N1) [48]): 0.44 mM | SI (Powassan virus (POWV) [49]): 0 | CC50 (in vitro [50]): > 2 mM | EC50 (dengue virus-2 (DV-2) [51]): > 2 mM | SI (SARS-CoV [52]): 0

CC(C)S(=O)(=O)n1c(N)nc2ccc(/C(=N/O)c3ccccc3)cc21 [Enviroxime]
EC50 [53]: 0.12 µg/mL (≈ 0.335 µM) | SI50 (SI) [54]: 46 | CC50 (in vitro [55]): 5.5 µg/mL (≈ 15.3 µM) | SI (poliovirus-1 (POV-1) [28]): 350 | CC50 (poliovirus-1 (POV-1) [28]; Vero 76 cells without virus, positive control): 3.3 µg/mL (≈ 9.21 µM) | EC50 (poliovirus-1 (POV-1) [34]; Vero 76, read-out: EQ50): 0.0095 µg/mL
